Results published in ChEMBL document CHEMBL1201862, “PubChem BioAssay data set” (2004).
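Five concentrations, 48 hours, 96-well plates. Abbreviation: GI50, concentration required for 50% inhibition of growth.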 Active and inactive are the calls of the source. Rule as the data show it: active = GI50 up to about 1.1 µM and inactive = higher. Square brackets hold non-standard residues; d marks the D form. Peptide text beside a SMILES is read from it. ξ: configuration not given here. ξ2Thi = NC(Cc1cccs1)C(=O)O; ξR = N=C(N)NCCCC(N)C(=O)O; ξI = CCC(C)C(N)C(=O)O; ξL = CC(C)CC(N)C(=O)O; ξK = NCCCCC(N)C(=O)O; ξT = CC(O)C(N)C(=O)O; ξA = CC(N)C(=O)O

Experiments:
Test in all cases: DTP human tumour cell line panel, 48 h
SF-295 = tested on: SF-295
SN12C = tested on: SN12C
OVCAR-4 = tested on: OVCAR-4
NCI-H522 = tested on: NCI-H522
UACC-62 = tested on: UACC-62
CAKI-1 = tested on: CAKI-1
M14 = tested on: M14
CCRF-CEM = tested on: CCRF-CEM
HL-60 = tested on: HL-60
HOP-92 = tested on: HOP-92
MCF7 = tested on: MCF7
MDA-MB-435 = tested on: MDA-MB-435
HT-29 = tested on: HT-29
NCI/ADR-RES = tested on: NCI/ADR-RES
LOX IMVI = tested on: LOX IMVI
UACC-257 = tested on: UACC-257
PC-3 = tested on: PC-3
SF-268 = tested on: SF-268
Hs-578T = tested on: Hs-578T
BT-549 = tested on: BT-549
NCI-H226 = tested on: NCI-H226
ACHN = tested on: ACHN
K562 = tested on: K562
SF-539 = tested on: SF-539
SNB-75 = tested on: SNB-75
NCI-H460 = tested on: NCI-H460
COLO 205 = tested on: COLO 205
HCT-15 = tested on: HCT-15
MDA-MB-231 = tested on: MDA-MB-231
SK-MEL-2 = tested on: SK-MEL-2
OVCAR-5 = tested on: OVCAR-5
KM12 = tested on: KM12
NCI-H23 = tested on: NCI-H23
MOLT-4 = tested on: MOLT-4
OVCAR-8 = tested on: OVCAR-8
U-251 = tested on: U-251
Malme-3M = tested on: Malme-3M
SR = tested on: SR
RXF 393 = tested on: RXF 393
DU-145 = tested on: DU-145
HOP-62 = tested on: HOP-62
OVCAR-3 = tested on: OVCAR-3
SK-MEL-5 = tested on: SK-MEL-5
SK-MEL-28 = tested on: SK-MEL-28
A549 = tested on: A549
A498 = tested on: A498
MDA-N = tested on: MDA-N
SNB-19 = tested on: SNB-19
RPMI-8226 = tested on: RPMI-8226
EKVX = tested on: EKVX
T47D = tested on: T47D
SW-620 = tested on: SW-620
IGROV-1 = tested on: IGROV-1
786-0 = tested on: 786-0
TK-10 = tested on: TK-10
HCT-116 = tested on: HCT-116
SK-OV-3 = tested on: SK-OV-3
UO-31 = tested on: UO-31
HCC 2998 = tested on: HCC 2998

O=C(O)c1ccc(SSc2ccc(C(=O)O)cn2)nc1
GI50 (SF-295): > 100 µM (inactive) | GI50 (SN12C): > 100 µM (inactive) | GI50 (OVCAR-4): > 100 µM (inactive) | GI50 (NCI-H522): > 100 µM (inactive) | GI50 (UACC-62): > 100 µM (inactive) | GI50 (CAKI-1): > 100 µM (inactive) | GI50 (M14): > 100 µM (inactive) | GI50 (CCRF-CEM): > 100 µM (inactive) | GI50 (HL-60): > 100 µM (inactive) | GI50 (HOP-92): > 100 µM (inactive) | GI50 (MCF7): > 100 µM (inactive) | GI50 (MDA-MB-435): > 100 µM (inactive) | GI50 (HT-29): > 100 µM (inactive) | GI50 (NCI/ADR-RES): > 100 µM (inactive) | GI50 (LOX IMVI): > 100 µM (inactive) | GI50 (UACC-257): > 100 µM (inactive) | GI50 (PC-3): > 100 µM (inactive) | GI50 (SF-268): > 100 µM (inactive) | GI50 (Hs-578T): > 100 µM (inactive) | GI50 (BT-549): > 100 µM (inactive) | GI50 (NCI-H226): 72.3 µM (inactive) | GI50 (ACHN): > 100 µM (inactive) | GI50 (K562): > 100 µM (inactive) | GI50 (SF-539): > 100 µM (inactive) | GI50 (SNB-75): > 100 µM (inactive) | GI50 (NCI-H460): > 100 µM (inactive) | GI50 (COLO 205): > 100 µM (inactive) | GI50 (HCT-15): > 100 µM | GI50 (MDA-MB-231): > 100 µM (inactive) | GI50 (SK-MEL-2): > 100 µM (inactive) | GI50 (OVCAR-5): > 100 µM (inactive) | GI50 (KM12): > 100 µM (inactive) | GI50 (NCI-H23): > 100 µM (inactive) | GI50 (MOLT-4): > 100 µM (inactive) | GI50 (OVCAR-8): > 100 µM (inactive) | GI50 (U-251): > 100 µM (inactive) | GI50 (Malme-3M): > 100 µM (inactive) | GI50 (SR): > 100 µM (inactive) | GI50 (RXF 393): > 100 µM (inactive) | GI50 (DU-145): > 100 µM (inactive) | GI50 (HOP-62): > 100 µM (inactive) | GI50 (OVCAR-3): > 100 µM (inactive) | GI50 (SK-MEL-5): > 100 µM (inactive) | GI50 (SK-MEL-28): > 100 µM (inactive) | GI50 (A549): > 100 µM (inactive) | GI50 (A498): > 100 µM (inactive) | GI50 (MDA-N): > 100 µM (inactive) | GI50 (SNB-19): > 100 µM (inactive) | GI50 (RPMI-8226): > 100 µM (inactive) | GI50 (EKVX): > 100 µM (inactive) | GI50 (T47D): > 100 µM (inactive) | GI50 (SW-620): > 100 µM (inactive) | GI50 (IGROV-1): > 100 µM (inactive) | GI50 (786-0): > 100 µM (inactive) | GI50 (TK-10): > 100 µM (inactive) | GI50 (HCT-116): > 100 µM (inactive) | GI50 (SK-OV-3): > 100 µM (inactive)

CCC(C)C(NC(=O)C(Cc1cccs1)NC(=O)C(CC(C)C)NC(=O)C(CC(C)C)NC(=O)C(CCCCN)NC(=O)C(CCCN=C(N)N)NC(=O)[C@H](Cc1ccc(O)cc1)NC(=O)C(NC(=O)C(C)NC(=O)C(N)CC(C)C)C(C)O)C(=O)NC(CC(C)C)C(N)=O (stereo not given in full) (H-[ξL][ξA][ξT]Y[ξR][ξK][ξL][ξL][ξ2Thi][ξI][ξL]-NH2)
GI50 (SF-295): > 50 µM (inactive) | GI50 (SN12C): > 50 µM (inactive) | GI50 (OVCAR-4): > 50 µM (inactive) | GI50 (NCI-H522): > 50 µM (inactive) | GI50 (UACC-62): > 50 µM (inactive) | GI50 (CAKI-1): > 50 µM (inactive) | GI50 (M14): > 50 µM (inactive) | GI50 (CCRF-CEM): > 50 µM (inactive) | GI50 (MCF7): > 50 µM (inactive) | GI50 (MDA-MB-435): > 50 µM (inactive) | GI50 (HT-29): > 50 µM (inactive) | GI50 (NCI/ADR-RES): > 50 µM (inactive) | GI50 (LOX IMVI): > 50 µM (inactive) | GI50 (UACC-257): > 50 µM (inactive) | GI50 (PC-3): > 50 µM (inactive) | GI50 (SF-268): > 50 µM (inactive) | GI50 (Hs-578T): > 50 µM (inactive) | GI50 (UO-31): > 50 µM (inactive) | GI50 (BT-549): > 50 µM (inactive) | GI50 (NCI-H226): > 50 µM (inactive) | GI50 (ACHN): > 50 µM (inactive) | GI50 (K562): > 50 µM (inactive) | GI50 (SF-539): > 50 µM (inactive) | GI50 (SNB-75): > 50 µM (inactive) | GI50 (NCI-H460): > 50 µM (inactive) | GI50 (COLO 205): > 50 µM (inactive) | GI50 (HCT-15): > 50 µM | GI50 (MDA-MB-231): > 50 µM (inactive) | GI50 (OVCAR-5): > 50 µM (inactive) | GI50 (KM12): > 50 µM (inactive) | GI50 (NCI-H23): > 50 µM (inactive) | GI50 (MOLT-4): > 50 µM (inactive) | GI50 (OVCAR-8): > 50 µM (inactive) | GI50 (U-251): > 50 µM (inactive) | GI50 (Malme-3M): > 50 µM (inactive) | GI50 (SR): > 50 µM (inactive) | GI50 (RXF 393): > 50 µM (inactive) | GI50 (DU-145): > 50 µM (inactive) | GI50 (HOP-62): > 50 µM (inactive) | GI50 (OVCAR-3): > 50 µM (inactive) | GI50 (SK-MEL-5): > 50 µM (inactive) | GI50 (SK-MEL-28): > 50 µM (inactive) | GI50 (A549): > 50 µM (inactive) | GI50 (A498): > 50 µM (inactive) | GI50 (MDA-N): > 50 µM (inactive) | GI50 (SNB-19): > 50 µM (inactive) | GI50 (RPMI-8226): > 50 µM (inactive) | GI50 (EKVX): > 50 µM (inactive) | GI50 (T47D): > 50 µM (inactive) | GI50 (SW-620): > 50 µM (inactive) | GI50 (HCC 2998): > 50 µM (inactive) | GI50 (786-0): > 50 µM (inactive) | GI50 (TK-10): > 50 µM (inactive) | GI50 (HCT-116): > 50 µM (inactive) | GI50 (SK-OV-3): > 50 µM (inactive)

O=C(CC1C=Cc2ccccc2N1C(=O)c1ccccc1)c1ccccc1 (stereo not given)
GI50 (SF-295): 27 µM (inactive) | GI50 (SN12C): 27 µM (inactive) | GI50 (OVCAR-4): 34.8 µM (inactive) | GI50 (NCI-H522): 13.8 µM (inactive) | GI50 (UACC-62): 11.7 µM (inactive) | GI50 (CAKI-1): 34.2 µM (inactive) | GI50 (M14): 20.1 µM (inactive) | GI50 (CCRF-CEM): 36.1 µM (inactive) | GI50 (HL-60): 14 µM (inactive) | GI50 (HOP-92): 24 µM (inactive) | GI50 (MCF7): 29.1 µM (inactive) | GI50 (MDA-MB-435): 20.4 µM (inactive) | GI50 (HT-29): 17.1 µM (inactive) | GI50 (NCI/ADR-RES): 25.8 µM (inactive) | GI50 (LOX IMVI): 23.6 µM (inactive) | GI50 (UACC-257): 20.5 µM (inactive) | GI50 (PC-3): 26.5 µM (inactive) | GI50 (SF-268): 27.1 µM (inactive) | GI50 (Hs-578T): 25.1 µM (inactive) | GI50 (UO-31): 20.4 µM (inactive) | GI50 (BT-549): 23.8 µM (inactive) | GI50 (NCI-H226): 34.4 µM (inactive) | GI50 (ACHN): 35.6 µM (inactive) | GI50 (K562): 19.9 µM (inactive) | GI50 (SF-539): 22.6 µM (inactive) | GI50 (SNB-75): 45.2 µM (inactive) | GI50 (NCI-H460): 22.8 µM (inactive) | GI50 (COLO 205): 19.5 µM (inactive) | GI50 (HCT-15): 26.2 µM | GI50 (MDA-MB-231): 21.9 µM (inactive) | GI50 (SK-MEL-2): 17.3 µM (inactive) | GI50 (OVCAR-5): 25.5 µM (inactive) | GI50 (KM12): 19.3 µM (inactive) | GI50 (NCI-H23): 23 µM (inactive) | GI50 (MOLT-4): 11.7 µM (inactive) | GI50 (OVCAR-8): 29.2 µM (inactive) | GI50 (U-251): 23.1 µM (inactive) | GI50 (Malme-3M): 21.7 µM (inactive) | GI50 (SR): 11.9 µM (inactive) | GI50 (RXF 393): 47.2 µM (inactive) | GI50 (DU-145): 50.8 µM (inactive) | GI50 (HOP-62): 30.6 µM (inactive) | GI50 (OVCAR-3): 13.4 µM (inactive) | GI50 (SK-MEL-5): 13.3 µM (inactive) | GI50 (SK-MEL-28): 30.1 µM (inactive) | GI50 (A549): 22.5 µM (inactive) | GI50 (A498): 28.9 µM (inactive) | GI50 (MDA-N): 16.1 µM (inactive) | GI50 (SNB-19): 27.7 µM (inactive) | GI50 (RPMI-8226): 10.9 µM (inactive) | GI50 (EKVX): 12.6 µM (inactive) | GI50 (T47D): 44.2 µM (inactive) | GI50 (SW-620): 33.6 µM (inactive) | GI50 (IGROV-1): 19.1 µM (inactive) | GI50 (786-0): 29.3 µM (inactive) | GI50 (TK-10): 36.3 µM (inactive) | GI50 (HCT-116): 16 µM (inactive) | GI50 (SK-OV-3): 30.9 µM (inactive)
